This data set is described as follows: Partition coefficient of organic co-solvents (log P 1-octanol/water). The source says:
The hydrophilicity of the organic co-solvent can be quantified as a partition coefficient. As used herein, “partition coefficient” refers to a concentration ratio of a compound in an equilibrium mixture of two immiscible phases, and can be a measure of the difference in solubility of the compound in the two immiscible phases. Formula I provides an equation of quantifying the hydrophilicity of the organic co-solvents of the present disclosure, as follows: […]

The mark [1] stands for this setting: equilibrium mixture of 1-octanol and water.

Like-named read-outs stand apart in the source and are kept apart here.

`O=C1CCCN1` [2-pyrrolidone]: the “Partition Coefficient (log P1-octanol/water)” value under setting [1] was −0.10 log P1-octanol/water.

On to `CC1(C)NC(=O)NC1=O` [5,5-dimethyl hydantoin], for which the “Partition Coefficient (log P1-octanol/water)” value was −0.40 log P1-octanol/water.

With `CCCCCCCCO` [Ink 1-octanol, 1-octanol], the “Partition Coefficient (log P1-octanol/water)” value is given as 2.34 log P1-octanol/water.

For the molecule `O=C1CCCN1CCO` [N-(2-hydroxyethyl)-2-pyrrolidinone], the “Partition Coefficient (log P1-octanol/water)” value is given as −0.40 log P1-octanol/water.

Turning to `CC1(C)C(=O)N(CCO)C(=O)N1CCO` [di-(2-hydroxyethy)-5,5-dimethylhydantoin], the “Partition Coefficient (log P1-octanol/water)” value is on record as −1.39 log P1-octanol/water.

In the case of `CCC(CO)(CO)CO` [ethylhydroxy propanediol], the “Partition Coefficient (log P1-octanol/water)” value under setting [1] is on record as −0.50 log P1-octanol/water.

On to `OCCOCCOCCO` [triethylene glycol], for which the “Partition Coefficient (log P1-octanol/water)” value is on record as −1.00 log P1-octanol/water.

Turning to `O` [water], the “Partition Coefficient (log P1-octanol/water)” value is given as −0.825 log P1-octanol/water.

For the origin of these results see patent publication US20210269661A1, “INK COMPOSITIONS” (HEWLETT-PACKARD DEVELOPMENT COMPANY, L.P., priority 2018, published 2021).
